Data as given in article PMC1976805, “Preclinical pharmacokinetics of benznidazole” (British Journal of Cancer, 1984).
Like-named read-outs stand apart in the source and are kept apart here.

Experiments:
[1] = Whole plasma pharmacokinetics in sheep (HPLC); assay type: in vivo; details: for half-life: male, Clun Forest/Border Leicester cross, sheep, plasma, iv
Excerpt: Br. J. Cancer (1984), 50, 291-303 Preclinical pharmacokinetics of benznidazole P. Workman', R.A.S. White2, M.I. Walton', L.N. Owen2* & P.R. Twentyman' 1MRC Clinical Oncology and Radiotherapeutics Unit, MRC Centre, Hills Road, Cambridge CB2 2QH, and 2Department of Clinical Veterinary Medicine, University of Cambridge, Madingley Road, Cambridge CB3 OES, UK. […] We have investigated the detailed pharmacokinetics of benznidazole in mice, dogs and sheep to provide a data base for the estimation of doses required for chemosensitization in man. Pharmacokinetic behaviour was linear except at high doses in mice. Absorption was fairly rapid and bioavailability was complete following both i.p. administration in mice and oral administration in dogs. Elimination t4 values were longer than for MISO, being 90 min in mice, 4-5 h in sheep and 9-11 h in dogs. At doses giving linear kinetics, peak whole plasma concentrations per administered mgkg-1 were 0.75 jigml-1 for the i.p. route in mice and 1.8jugmlP' for the oral route in dogs. Though between 39 and 59% of plasma benznidazole was bound to protein, tissue penetration was generally good. Tissue/whole plasma ratios ranged from 59-99% for transplantable mouse tumours and from 14-70% for spontaneous dog neoplasms. Nervous tissue penetration was similar to that in tumours: brain/whole plasma ratios averaged between 61 and 76% in mice and 42% in dogs, while peripheral nerve/whole plasma ratios in dogs averaged 74%. Mean liver/whole plasma ratios were 42% and 71% in BALB/c and C3H/He mouse strains respectively. Only -5% of the administered dose was excreted unchanged in the urine, indicating the likelihood of extensive metabolism. […] Enhancement of CCNU response is likely to require circulating benznidazole concentrations of 10-30 pgml-1 and we predict that these will be obtained with oral doses of 6-20 mgkg- 1 in man. […] This enhancement, or chemosensitization, is usually greater than that seen in dose-limiting normal tissues, resulting in an improved therapeutic index. Because of the relatively high doses of MISO usually required for chemosensitization in mice (see above refs), and also because of its neurotoxicity in man (Dische et al., 1977), we have been interested in finding an improved chemosensitizer. […] The lipophilic ana- logue benznidazole (N-benzyl-(2-nitroimidazolyl) acetamide, Ro 07-1051; Radanil; Roche), the structure of which is shown in Figure 1, was selected for detailed study because of its ability to *Present address: Animal Health Trust, Small Animals Centre, Lanwades Park, Kennett, Newmarket, Suffolk CB8 7PN, UK. Correspondence: P. Workman. […] These findings have been confirmed independently by Siemann et al. (1983). Although benznidazole is used quite widely in South America to treat patients with the trypanosomal infection Chagas' disease or with mucotaneous Leishmaniasis (Barclay et al., 1978; Cerisola et al., 1978; Coura et al., 1978; Fava et al., 1978), apart from our preliminary studies (White et al., 1982) the only published data on its pharmaco- kinetics are for human plasma concentrations measured by polarography (Raaflub & Ziegler, 1979; Raaflub, 1980). Here we describe the pharmacokinetics of benznidazole in the mouse, sheep and dog, as determined by high-performance liquid chromatography (HPLC). […]

[2] = test system: plasma proteins; test: In vivo plasma protein binding in dogs (plasma ultrafiltrate); details: dog; for fraction unbound: plasma
Excerpt: (§1) Br. J. Cancer (1984), 50, 291-303 Preclinical pharmacokinetics of benznidazole P. Workman', R.A.S. White2, M.I. Walton', L.N. Owen2* & P.R. Twentyman' 1MRC Clinical Oncology and Radiotherapeutics Unit, MRC Centre, Hills Road, Cambridge CB2 2QH, and 2Department of Clinical Veterinary Medicine, University of Cambridge, Madingley Road, Cambridge CB3 OES, UK. […] We have investigated the detailed pharmacokinetics of benznidazole in mice, dogs and sheep to provide a data base for the estimation of doses required for chemosensitization in man. Pharmacokinetic behaviour was linear except at high doses in mice. Absorption was fairly rapid and bioavailability was complete following both i.p. administration in mice and oral administration in dogs. Elimination t4 values were longer than for MISO, being 90 min in mice, 4-5 h in sheep and 9-11 h in dogs. At doses giving linear kinetics, peak whole plasma concentrations per administered mgkg-1 were 0.75 jigml-1 for the i.p. route in mice and 1.8jugmlP' for the oral route in dogs. Though between 39 and 59% of plasma benznidazole was bound to protein, tissue penetration was generally good. Tissue/whole plasma ratios ranged from 59-99% for transplantable mouse tumours and from 14-70% for spontaneous dog neoplasms. Nervous tissue penetration was similar to that in tumours: brain/whole plasma ratios averaged between 61 and 76% in mice and 42% in dogs, while peripheral nerve/whole plasma ratios in dogs averaged 74%. Mean liver/whole plasma ratios were 42% and 71% in BALB/c and C3H/He mouse strains respectively. Only -5% of the administered dose was excreted unchanged in the urine, indicating the likelihood of extensive metabolism. […] Enhancement of CCNU response is likely to require circulating benznidazole concentrations of 10-30 pgml-1 and we predict that these will be obtained with oral doses of 6-20 mgkg- 1 in man. […] This enhancement, or chemosensitization, is usually greater than that seen in dose-limiting normal tissues, resulting in an improved therapeutic index. Because of the relatively high doses of MISO usually required for chemosensitization in mice (see above refs), and also because of its neurotoxicity in man (Dische et al., 1977), we have been interested in finding an improved chemosensitizer. […] The lipophilic ana- logue benznidazole (N-benzyl-(2-nitroimidazolyl) acetamide, Ro 07-1051; Radanil; Roche), the structure of which is shown in Figure 1, was selected for detailed study because of its ability to *Present address: Animal Health Trust, Small Animals Centre, Lanwades Park, Kennett, Newmarket, Suffolk CB8 7PN, UK. Correspondence: P. Workman. […] These findings have been confirmed independently by Siemann et al. (1983). Although benznidazole is used quite widely in South America to treat patients with the trypanosomal infection Chagas' disease or with mucotaneous Leishmaniasis (Barclay et al., 1978; Cerisola et al., 1978; Coura et al., 1978; Fava et al., 1978), apart from our preliminary studies (White et al., 1982) the only published data on its pharmaco- kinetics are for human plasma concentrations measured by polarography (Raaflub & Ziegler, 1979; Raaflub, 1980). Here we describe the pharmacokinetics of benznidazole in the mouse, sheep and dog, as determined by high-performance liquid chromatography (HPLC). […] The Macmillan Press Ltd., 1984 292 P. WORKMAN et al. particularly on plasma and tumour concentrations, have been used as a basis for the estimation of the benznidazole doses required in a Phase I trial of benznidazole plus CCNU, at present ongoing in our Unit. Materials and methods Animals and tumours Adult inbred male BALB/c mice were obtained from OLAC (Southern) Ltd. (Bicester, UK) and adult inbred C3H/He mice of both sexes from OLAC and our own breeding colony. Mice were housed in plastic cages on sawdust bedding made from soft white woods, and allowed laboratory chow and water ad lib. They were used at 20-35 g body wt.

[3] = Penetration into EMT6 and KHT mouse tumours; assay type: in vivo; details: for steady-state concentration in tumour: multiple dose schedule
Excerpt: as §1

[4] = EMT6 flank tumour, BALB/c, 45 min after 650 mg kg-1 i.p.

## O=C(Cn1ccnc1[N+](=O)[O-])NCc1ccccc1 [benznidazole, N-benzyl-(2-nitroimidazolyl) acetamide]
[1]; 4 mg/kg, sheep 1, 4 mg kg-1 i.v., read-out: elimination t1/2 (95% confidence limits) (converted)
  half-life: 5.2 h
[1]; 4 mg/kg, sheep 2, 4 mg kg-1 i.v., read-out: elimination t1/2 (95% confidence limits) (converted)
  half-life: 3.8 h
[1]; summary value, read-out: elimination t1/2
  half-life: 4 to 5 h
[1]; sheep 1, 4 mg kg-1 i.v.
  peak whole plasma concentration: 3.6 µg/mL
[1]; sheep 2, 4 mg kg-1 i.v.
  peak whole plasma concentration: 2.5 µg/mL
[2]; beagle, po, 50 mg kg-1, dog E, 50 mg kg-1 oral, full time course, read-out: protein binding (mean+s.e., n=8) (converted)
  fraction unbound: 0.45
[2]; beagle, po, 50 mg kg-1, dog F, 50 mg kg-1 oral, full time course, read-out: protein binding (mean+s.e., n=8) (converted)
  fraction unbound: 0.48
[2]; collie crossbred, beagle, iv, dogs, apart from the two i.v. time courses, read-out: in vivo protein binding, range
  fraction unbound: 0.41 to 0.48
[2]; collie crossbred, iv, 5 mg kg-1, dog C, 5 mg kg-1 i.v., full time course, read-out: protein binding (mean+s.e., n=8) (converted)
  fraction unbound: 0.28
[2]; collie crossbred, iv, 5 mg kg-1, dog D, 5 mg kg-1 i.v., full time course, read-out: protein binding (mean+s.e., n=8) (converted)
  fraction unbound: 0.26
[2]; collie crossbred, po, 25 mg kg-1, dog A, 25 mg kg-1 oral, mean of 4 and 5 h values, read-out: protein binding (converted)
  fraction unbound: 0.47
[2]; collie crossbred, po, 25 mg kg-1, dog B, 25 mg kg-1 oral, mean of 4 and 5 h values, read-out: protein binding (converted)
  fraction unbound: 0.41
[2]; collie crossbred, po, 25 mg kg-1, dog C, 25 mg kg-1 oral, mean of 4 and 5 h values, read-out: protein binding (converted)
  fraction unbound: 0.45
[2]; collie crossbred, po, 25 mg kg-1, dog D, 25 mg kg-1 oral, mean of 4 and 5 h values, read-out: protein binding (converted)
  fraction unbound: 0.47
[2]; discussion summary
  binding to plasma proteins: 59%
[3]; [4]
  concentration in tumour homogenate (Figure 2 chromatogram): 13500 ng/mL
  tumour concentration (Figure 2 chromatogram): 54 µg/g
[3]; EMT6 flank, experiment b, 650 mg kg-1 i.p., 45 min
  tumour/whole plasma ratio (s.e., n=5): 58+8%
[3]; EMT6 flank, experiment b, 650 mg kg-1 i.p., 75 min
  tumour/whole plasma ratio (s.e., n=5): 70 + 5%
[3]; EMT6 flank, experiment b, 650 mg kg-1 i.p., 105 min
  tumour/whole plasma ratio (s.e., n=5): 97 + 4%
[3]; EMT6 flank, experiment b, 650 mg kg-1 i.p., 135 min
  tumour/whole plasma ratio (s.e., n=5): 88 + 9%
[3]; EMT6 i.d. flank, BALB/c, Exp 2 (b): 650 mg kg-1 i.p., 45-135 min, n=20
  tumour/whole plasma ratio (% ± s.e.): 79 + 5%
[3]; EMT6 i.d. flank, first experiment, 650 mg kg-1 i.p. in arachis oil
  peak tumour level (s.e., n=4): 55+11 µg g-1
[3]; EMT6 i.m. leg, BALB/c, Exp 1 (c): 650 mg kg-1 i.p., 45-135 min, n=20
  tumour/whole plasma ratio (% ± s.e.): 75 + 5%
[3]; EMT6 i.m. leg, BALB/c, Exp 2 (d): 650 mg kg-1 i.p., 45-135 min, n=20
  tumour/whole plasma ratio (% ± s.e.): 74+6%
[3]; EMT6 i.m. leg, first experiment, 650 mg kg-1 i.p.
  peak tumour level (s.e., n=5): 130+7 µg g-1
[3]; EMT6 i.m. leg, second experiment, 650 mg kg-1 i.p.
  peak tumour level (s.e., n=5): 84+14 µg g-1
[3]; KHT i.m. leg, C3H/He, Exp 1 (e): 60 mg kg-1 i.p. priming + 15 hourly doses of 15 mg kg-1, 1-16 h, n=25
  tumour/whole plasma ratio (% ± s.e.): 99+3%
[3]; KHT i.m. leg, C3H/He, Exp 2 (f): dosing as e omitting the dose at 1 h, 2-16 h, n=13
  tumour/whole plasma ratio (% ± s.e.): 90+ 3%
[3]; KHT tumour, 1 h after single i.p. dose of 78 mg kg-1
  tumour/whole plasma ratio (s.e., n=5): 88+5%
[3]; KHT tumour, 1 h after single i.p. dose of 260 mg kg-1
  tumour/whole plasma ratio (s.e., n=5): 88+2%
[3]; KHT tumour, first experiment
  steady-state concentration in tumour: 26 µg/g
[3]; KHT tumour, second experiment
  steady-state concentration in tumour: 32 µg/g
[3]; Table II experiment a
  range of mean plasma concentrations: 49 to 99 µg/mL
[3]; Table II experiment b
  range of mean plasma concentrations: 77 to 121 µg/mL
[3]; Table II experiment c
  range of mean plasma concentrations: 100 to 130 µg/mL
[3]; Table II experiment d
  range of mean plasma concentrations: 74 to 133 µg/mL
[3]; Table II experiment e (multiple dose)
  range of mean plasma concentrations: 25 to 47 µg/mL
[3]; Table II experiment f (multiple dose)
  range of mean plasma concentrations: 12 to 29 µg/mL
[3]; male, BALB/c, mouse, EMT6 flank tumour / whole plasma, EMT6 flank tumours, read-out: overall tissue/whole plasma ratio
  Kp: 0.69
[3]; male, mouse, tumour (EMT6, intradermal, intraperitoneal), EMT6 i.d. flank, BALB/c, Exp 1 (a): 650 mg kg-1 i.p. single dose (arachis oil), 45-135 min, n=16, read-out: tumour/whole plasma ratio (% ± s.e.)
  Kp: 0.59
[3]; mice, 13 mg kg-1 i.p.
  peak tumour concentration that would be produced: ~9 µg/g
[3]; mice, 78 mg kg-1 i.p., discussion summary
  tumour concentration: 26 µg/g
[3]; tumour (KHT and EMT6), transplantable mouse tumours (KHT and EMT6), read-out: tissue/whole plasma ratios, range
  Kp: 0.59 to 0.99
[3]; tumour / whole plasma, transplantable mouse tumours, read-out: steady-state tumour/whole plasma ratio (about)
  Kp: ~0.9
